According to patent publication EP0070331A2, “Cephalosporin derivatives, their preparation, compositions containing them, and their use in the treatment of diseases” (F. HOFFMANN-LA ROCHE & CO. Aktiengesellschaft, priority 1981, dated 1983):

Experiments:
Escherichia coli = test: Curative dose (CD50) in infected mice, Escherichia coli; assay type: in vivo; conditions: Maus, dose at which 50% of mice survive
Streptococcus pyogenes = test: Curative dose (CD50) in infected mice, Streptococcus pyogenes; assay type: in vivo; conditions: Maus, dose at which 50% of mice survive
Neisseria meningitidis = test: Curative dose (CD50) in infected mice, Neisseria meningitidis; assay type: in vivo; conditions: po, Maus, dose at which 50% of mice survive
Description: (§1) Die orale antimikrobielle Wirksamkeit der erfindungsgemässen Produkte kann anhand von in vivo-Versuchen an der Maus nachgewiesen werden.

Serratia marcescens = test: Curative dose (CD50) in infected mice, Serratia marcescens; assay type: in vivo; conditions: Maus, dose at which 50% of mice survive
Description: as §1

[1] = Blood levels after oral administration in the rat; assay type: in vivo; conditions: Ratte, orale Dosis 20 mg/kg, read-out: Antibiotikumkonzentration im Blut
Description: ..Die nach oraler Gabe erzielten Blutspiegelwerte ergeben sich gemäss folgendem Vergleich an der Ratte.

in vivo = conditions: mouse, po

SMILES: CC1=C(C(=O)O)N2C(=O)[C@@H](NC(=O)[C@H](N)c3ccccc3)[C@H]2SC1 [Cephalexin]
- ED50 (Escherichia coli; po): 3.2 mg/kg
- ED50 (Escherichia coli; sc): 2.1 mg/kg
- ED50 (Streptococcus pyogenes; po): 1.8 mg/kg
- ED50 (Streptococcus pyogenes; sc): 1.2 mg/kg
- ED50 (Neisseria meningitidis): 1.2 mg/kg
- ED50 (Serratia marcescens; po): > 50 mg/kg
- ED50 (Serratia marcescens; sc): > 50 mg/kg

SMILES: CO/N=C(\C(=O)N[C@@H]1C(=O)N2C(C(=O)OCOC(=O)C(C)(C)C)=C(CSc3nc(C(=O)OCOC(=O)C(C)(C)C)nn3C)CS[C@H]12)c1csc(N)n1 [Produkt A, Methylen (6R,7R)-7-[2-(2-Amino-4-thiazolyl)-2-[ (Z)-methoxyimino]-acetamido]-3-[[[2-methyl-5-[[(pivaloyloxy)methoxy]carbonyl]-2H-1,2,4-triazol-3-yl]thio]methyl]-8-oxo-5-thia-1-azabicyclo[4.2.0]oct-2-en-2-carboxylat-pivalat]
- concentration at 0.25 h ([1]; after 15 min): 6000 ng/mL
- concentration at 0.5 h ([1]; after 30 min): 12000 ng/mL
- concentration at 0.75 h ([1]; after 45 min): 12000 ng/mL
- concentration at 1 h ([1]; after 60 min): 10000 ng/mL
- concentration at 1.5 h ([1]; after 90 min): 8000 ng/mL
- concentration at 2.5 h ([1]; after 150 min): 5000 ng/mL
- ED50 (Streptococcus pyogenes; po): 0.95 mg/kg
- ED50 (Neisseria meningitidis): 0.14 mg/kg
- ED50 (Serratia marcescens; po): 0.68 mg/kg
- ED50 (Serratia marcescens; sc): 0.05 mg/kg
- LD50 at 24 h (in vivo): > 4000 mg/kg
